Drawing on US8664257B2, “Oxygen-substituted 3-heteroaroylamino-propionic acid derivatives and their use as pharmaceuticals” (Sanofi, priority 2010, dated 2014), this text covers IC50 for 57 molecules.

This assay deals with T1, Recombinant human cathepsin A (Homo sapiens, UniProt P10619).
T1 construct: Recombinant human cathepsin A (residues 29-480, with a C-terminal 10-His tag); 10-His (C); purchased R&D Systems 1049-SE
T1 sequence (P10619 29-312 limits assumed): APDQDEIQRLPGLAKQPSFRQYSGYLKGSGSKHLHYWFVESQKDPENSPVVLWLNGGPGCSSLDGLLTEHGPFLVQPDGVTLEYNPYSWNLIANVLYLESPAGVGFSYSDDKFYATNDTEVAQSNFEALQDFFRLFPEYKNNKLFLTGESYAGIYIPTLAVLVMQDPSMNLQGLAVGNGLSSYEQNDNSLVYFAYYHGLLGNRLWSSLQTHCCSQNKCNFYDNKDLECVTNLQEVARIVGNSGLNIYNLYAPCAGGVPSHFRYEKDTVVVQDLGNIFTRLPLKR
T1 sequence (P10619 327-480 limits assumed): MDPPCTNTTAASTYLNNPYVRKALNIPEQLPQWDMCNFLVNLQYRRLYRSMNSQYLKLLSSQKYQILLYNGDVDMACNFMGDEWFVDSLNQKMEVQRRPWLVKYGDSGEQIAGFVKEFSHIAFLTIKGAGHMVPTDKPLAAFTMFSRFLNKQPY
Description: Cathepsin A inhibitory activity. The format is biochemical. The conditions noted are these: read-out: Activity (2): Cathepsin A inhibitory activity (IC50 class). The gist of the method: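 Read-out was microfluidic separation of cleaved vs. uncleaved Bodipy FL-bradykinin (2 μM), giving turnover, % inhibition and IC50. Compound and 833 ng/ml enzyme met for 15 min RT in pH 5.5 MES/DTT before substrate (15 min RT). The 29-480 His-tagged human enzyme was first activated by cathepsin L, then E-64 (10 μM).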

As a reminder, the IC50 is the concentration at which inhibition is half-maximal.

In the case of `O=C(O)CC(NC(=O)c1cc(O)n(-c2ccccc2Cl)n1)c1ccc(-n2cccn2)cc1` (stereo not drawn) [Example 580], the concentration for half-maximal inhibition (IC50) fell in the range of 100 to 1000 nM.

Take `O=C(O)CC(NC(=O)c1cc(O)n(-c2ccccc2Cl)n1)c1ccc(-c2ccc(C(F)(F)F)cc2)cc1` (stereo not drawn) [Example 581]: the IC50 lay in the range of 1000 to 30000 nM.

On to `O=C(O)CC(NC(=O)c1cc(O)n(-c2ccccc2F)n1)c1ccc(-n2cccn2)cc1` (stereo not drawn) [Example 582], for which the IC50 is 100 to 1000 nM.

As for `O=C(O)CC(NC(=O)c1cc(O)n(-c2ccccc2)n1)c1ccc(-c2ccccc2F)cc1` (stereo not drawn) [Example 583], the IC50 is 1000 to 30000 nM.

On to `O=C(O)CC(NC(=O)c1cc(O)n(-c2ccccc2F)n1)c1ccc(-c2ccccc2F)cc1` (stereo not drawn) [Example 584], for which the half-maximal inhibitory concentration (IC50) fell in the range of 100 to 1000 nM.

Consider `O=C(O)CC(NC(=O)c1cc(O)n(-c2ccccc2Cl)n1)c1ccc(-c2ccccc2F)cc1` (stereo not drawn) [Example 585, 3-{[1-(2-Chloro-phenyl)-5-hydroxy-1H-pyrazole-3-carbonyl]-amino}-3-(2′-fluoro-biphenyl-4-yl)-propionic acid], for which the IC50 is 100 to 1000 nM.

On to `Cc1ccccc1[C@H](CC(=O)O)NC(=O)c1cc(O)n(-c2cc(F)cc(F)c2)n1` [Example 586], for which the 50% inhibitory concentration (IC50) was in the range of 100 to 1000 nM.

For `O=C(O)CC(NC(=O)c1cc(O)n(-c2cc(F)cc(F)c2)n1)c1ccc(-c2ccc(F)cc2)cc1` (stereo not drawn) [Example 587], the concentration for half-maximal inhibition (IC50) fell in the range of 1000 to 30000 nM.

`Cc1ccccc1[C@H](CC(=O)O)NC(=O)c1cc(O)n(-c2c(F)cccc2F)n1` [Example 588]: the IC50 lay in the range of 100 to 1000 nM.

Take `Cc1ccccc1[C@H](CC(=O)O)NC(=O)c1cc(O)n(-c2cccc(Cl)c2F)n1` [Example 589]: the IC50 fell in the range of 100 to 1000 nM.

Regarding `O=C(O)CC(NC(=O)c1cc(O)n(-c2cccc(Cl)c2F)n1)c1ccc(-c2ccc(F)cc2)cc1` (stereo not drawn) [Example 590], the IC50 fell in the range of 100 to 1000 nM.

Take `O=C(O)CC(NC(=O)c1cc(O)n(-c2ccccc2Cl)n1)c1ccc(-c2ccccc2Cl)cc1` (stereo not drawn) [Example 591]: the IC50 was in the range of 100 to 1000 nM.

`Cc1ccccc1C(CC(=O)O)NC(=O)c1nn(-c2ccccc2F)c(O)c1C` (stereo not drawn) [Example 592]: the IC50 was 100 to 1000 nM.

In the case of `COc1c(Cl)c(C(=O)N[C@@H](CC(=O)O)c2ccccc2C)nn1-c1ccccc1F` [Example 593], the IC50 fell in the range of 100 to 1000 nM.

In the case of `COc1c(Br)c(C(=O)N[C@@H](CC(=O)O)c2ccccc2C)nn1-c1ccccc1F` [Example 594], the IC50 is less than 100 nM.

Consider `COc1c(F)c(C(=O)N[C@@H](CC(=O)O)c2ccccc2C)nn1-c1ccccc1F` [Example 595], for which the IC50 is less than 100 nM.

Consider `COc1cc(C(=O)N[C@@H](CC(=O)O)c2cccc(Cl)c2Cl)nn1-c1ccccc1` [Example 596], for which the IC50 was less than 100 nM.

On to `COc1cc(C(=O)NC(CC(=O)O)c2ccc(-c3ccccn3)cc2)nn1-c1ccccc1` (stereo not drawn) [Example 597, 3-[(5-Methoxy-1-phenyl-1H-pyrazole-3-carbonyl)-amino]-3-(4-pyridin-2-yl-phenyl)-propionic acid], for which the IC50 was in the range of 100 to 1000 nM.

On to `COc1cc(C(=O)NC(CC(=O)O)c2ccc(-c3ccccn3)cc2)nn1-c1ccccc1F` (stereo not drawn) [Example 598], for which the half-maximal inhibitory concentration (IC50) is less than 100 nM.

With `Cc1ccccc1[C@H](CC(=O)O)NC(=O)c1cc(O)n(-c2cc(F)ccc2F)n1` [Example 599], the half-inhibitory concentration (IC50) was less than 100 nM.

Take `CS(=O)(=O)c1ccc(C(CC(=O)O)NC(=O)c2cc(O)n(-c3ccccc3)n2)cc1` (stereo not drawn) [Example 600]: the IC50 is 1000 to 30000 nM.

With `Cc1ccccc1[C@H](CC(=O)O)NC(=O)c1cc(O)n(-c2cccc(S(N)(=O)=O)c2)n1` [Example 601], the 50% inhibitory concentration (IC50) was 100 to 1000 nM.

Regarding `Cc1ccccc1[C@H](CC(=O)O)NC(=O)c1cc(O)n(-c2ccc(S(N)(=O)=O)cc2)n1` [Example 602], the IC50 was 1000 to 30000 nM.

`CS(=O)(=O)c1ccc(C(CC(=O)O)NC(=O)c2cc(O)n(-c3ccccc3F)n2)cc1` (stereo not drawn) [Example 603, 3-{[1-(2-Fluoro-phenyl)-5-hydroxy-1H-pyrazole-3-carbonyl]-amino}-3-(4-methanesulfonyl-phenyl)-propionic acid]: the half-inhibitory concentration (IC50) was in the range of 1000 to 30000 nM.

For the molecule `COc1c(C)c(C(=O)NC(CC(=O)O)c2ccccc2C)nn1-c1ccccc1F` (stereo not drawn) [Example 605], the half-inhibitory concentration (IC50) was 1000 to 30000 nM.

Regarding `NS(=O)(=O)c1cccc(-n2nc(C(=O)NC(CC(=O)O)c3ccc(-c4ccc(F)cc4)cc3)cc2O)c1` (stereo not drawn) [Example 606], the IC50 is 100 to 1000 nM.

For the molecule `Cc1ccccc1[C@H](CC(=O)O)NC(=O)c1cc(O)n(-c2ccccc2S(C)(=O)=O)n1` [Example 607], the IC50 lay within 1000 to 30000 nM.

Take `COc1cc(C(=O)N[C@@H](CC(=O)O)c2ccccc2C)nn1-c1ccccc1Cl` [Example 608]: the IC50 lay within 100 to 1000 nM.

Turning to `COc1cc(C(=O)N[C@@H](CC(=O)O)c2ccccc2C)nn1-c1cccc(F)c1` [Example 609], the IC50 was less than 100 nM.

Take `COc1cc(C(=O)N[C@@H](CC(=O)O)c2ccccc2C)nn1-c1cc(F)ccc1F` [Example 610]: the 50% inhibitory concentration (IC50) was less than 100 nM.

In the case of `COc1cc(C(=O)N[C@@H](CC(=O)O)c2ccccc2C)nn1C(C)(C)C` [Example 611], the IC50 fell in the range of 100 to 1000 nM.

As for `Cc1ccccc1[C@H](CC(=O)O)NC(=O)c1cc(OCC2CC2)n(-c2ccccc2F)n1` [Example 612], the 50% inhibitory concentration (IC50) is less than 100 nM.

Turning to `Cc1ccccc1[C@H](CC(=O)O)NC(=O)c1cc(OC(=O)N2CCCC2)n(-c2ccccc2F)n1` [Example 613, Pyrrolidine-1-carboxylic acid 5-((S)-2-carboxy-1-o-tolyl-ethylcarbamoyl)-2-(2-fluoro-phenyl)-2H-pyrazol-3-yl ester], the 50% inhibitory concentration (IC50) is less than 100 nM.

For the molecule `Cc1ccccc1[C@H](CC(=O)O)NC(=O)c1cc(OC(=O)N(C)C)n(-c2ccccc2F)n1` [Example 614], the 50% inhibitory concentration (IC50) was less than 100 nM.

On to `Cc1ccccc1[C@H](CC(=O)O)NC(=O)c1cc(OCC(=O)N(C)C)n(-c2ccccc2F)n1` [Example 615], for which the 50% inhibitory concentration (IC50) is less than 100 nM.

Turning to `Cc1ccccc1[C@H](CC(=O)O)NC(=O)c1cc(OCC(=O)N2CCCC2)n(-c2ccccc2F)n1` [Example 616], the IC50 was less than 100 nM.

Regarding `COCCOc1cc(C(=O)N[C@@H](CC(=O)O)c2ccccc2C)nn1-c1ccccc1F` [Example 617], the concentration for half-maximal inhibition (IC50) was less than 100 nM.

On to `Cc1ccccc1[C@H](CC(=O)O)NC(=O)c1cc(OC(=O)N2CCCCC2)n(-c2ccccc2F)n1` [Example 619], for which the IC50 is less than 100 nM.

For the molecule `Cc1ccccc1[C@H](CC(=O)O)NC(=O)c1cc(OC(=O)N(C)c2ccccc2)n(-c2ccccc2F)n1` [Example 620], the 50% inhibitory concentration (IC50) is less than 100 nM.

For `CCOc1cc(C(=O)N[C@@H](CC(=O)O)c2ccccc2C)nn1-c1ccccc1` [Example 621], the IC50 was less than 100 nM.

Turning to `Cc1ccccc1[C@H](CC(=O)O)NC(=O)c1cc(OCC2CC2)n(-c2ccccc2)n1` [Example 622], the half-maximal inhibitory concentration (IC50) is less than 100 nM.

For `Cc1ccccc1[C@H](CC(=O)O)NC(=O)c1cc(OCc2ccccc2C(F)(F)F)n(-c2ccccc2F)n1` [Example 623], the half-inhibitory concentration (IC50) lay within 100 to 1000 nM.

Turning to `Cc1ccccc1[C@H](CC(=O)O)NC(=O)c1cc(OCc2cccc(C(F)(F)F)c2)n(-c2ccccc2F)n1` [Example 624], the IC50 lay in the range of 100 to 1000 nM.

In the case of `Cc1ccccc1[C@H](CC(=O)O)NC(=O)c1cc(OCCc2ccccc2)n(-c2ccccc2F)n1` [Example 625], the IC50 was less than 100 nM.

Turning to `Cc1ccccc1[C@H](CC(=O)O)NC(=O)c1cc(OC2CCCC2)n(-c2ccccc2F)n1` [Example 626], the IC50 is less than 100 nM.

Take `Cc1ccccc1[C@H](CC(=O)O)NC(=O)c1cc(OCC2CCOCC2)n(-c2ccccc2F)n1` [Example 627]: the IC50 is less than 100 nM.

Regarding `Cc1ccccc1[C@H](CC(=O)O)NC(=O)c1cc(OCCc2c(C)noc2C)n(-c2ccccc2F)n1` [Example 628], the IC50 is less than 100 nM.

For the molecule `Cc1ccccc1[C@H](CC(=O)O)NC(=O)c1cc(OCc2ccncc2)n(-c2ccccc2F)n1` [Example 629], the IC50 was less than 100 nM.

Turning to `Cc1ccccc1[C@H](CC(=O)O)NC(=O)c1cc(OC(C)C)n(-c2ccccc2F)n1` [Example 630], the IC50 is less than 100 nM.

As to `Cc1ccccc1[C@H](CC(=O)O)NC(=O)c1cc(OC2CCCCC2)n(-c2ccccc2F)n1` [Example 631], the half-inhibitory concentration (IC50) is less than 100 nM.

Regarding `Cc1ccccc1[C@H](CC(=O)O)NC(=O)c1cc(OCC(C)(C)C)n(-c2ccccc2F)n1` [Example 632], the 50% inhibitory concentration (IC50) is less than 100 nM.

Take `Cc1ccccc1[C@H](CC(=O)O)NC(=O)c1cc(OCC2CC2)n(-c2c(F)cccc2F)n1` [Example 634]: the IC50 was less than 100 nM.

On to `Cc1ccccc1[C@H](CC(=O)O)NC(=O)c1cc(OCc2ccccc2C#N)n(-c2ccccc2F)n1` [Example 635, (S)-3-{[5-(2-Cyano-benzyloxy)-1-(2-fluoro-phenyl)-1H-pyrazole-3-carbonyl]-amino}-3-o-tolyl-propionic acid], for which the IC50 is less than 100 nM.

Regarding `Cc1ccc([C@H](CC(=O)O)NC(=O)c2cc(OCC(C)(O)c3ccccc3)n(-c3ccccc3F)n2)cc1` (stereo partly drawn) [Example 636], the 50% inhibitory concentration (IC50) is less than 100 nM.

On to `CCOCCOCCOc1cc(C(=O)N[C@@H](CC(=O)O)c2ccccc2C)nn1-c1ccccc1F` [Example 637], for which the IC50 is less than 100 nM.

As to `Cc1ccccc1[C@H](CC(=O)O)NC(=O)c1cc(OCC2CCCCC2)n(-c2ccccc2F)n1` [Example 638], the IC50 is less than 100 nM.

Take `Cc1ccccc1[C@H](CC(=O)O)NC(=O)c1cc(OCCN2CCCC2=O)n(-c2ccccc2F)n1` [Example 639]: the IC50 is less than 100 nM.
